Data reported in article PMC4777574, “Pharmacological Inhibition of Monoacylglycerol O-Acyltransferase 2 Improves Hyperlipidemia, Obesity, and Diabetes by Change in Intestinal Fat Utilization” (PLoS ONE, 2016).

How the values were obtained:
[1] = biological target: T1, Monoacylglycerol O-acyltransferase 2 (MGAT2) (Homo sapiens, UniProt Q3SYC2); assay: MGAT2 enzyme inhibition IC50 (assay details not given); type: biochemical
T1 construct: gene MOGAT2

[2] = biological target: T2, Monoacylglycerol O-acyltransferase 2 (MGAT2) (Mus musculus, UniProt Q80W94); assay: MGAT2 enzyme inhibition IC50 (assay details not given); anorectic effect lost in MGAT2 KO mice; type: biochemical
T2 construct: gene Mogat2
T2 sequence (Q80W94 whole entry): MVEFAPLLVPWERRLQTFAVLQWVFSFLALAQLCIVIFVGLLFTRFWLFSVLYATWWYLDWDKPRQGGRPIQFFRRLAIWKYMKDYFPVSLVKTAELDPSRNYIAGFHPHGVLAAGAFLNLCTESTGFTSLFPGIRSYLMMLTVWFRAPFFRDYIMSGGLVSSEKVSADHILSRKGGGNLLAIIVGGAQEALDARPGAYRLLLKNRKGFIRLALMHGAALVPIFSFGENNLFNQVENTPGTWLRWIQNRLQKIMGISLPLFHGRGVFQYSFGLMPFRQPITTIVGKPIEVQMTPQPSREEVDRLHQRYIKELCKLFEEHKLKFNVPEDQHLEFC

T1 sequence (Q3SYC2 whole entry): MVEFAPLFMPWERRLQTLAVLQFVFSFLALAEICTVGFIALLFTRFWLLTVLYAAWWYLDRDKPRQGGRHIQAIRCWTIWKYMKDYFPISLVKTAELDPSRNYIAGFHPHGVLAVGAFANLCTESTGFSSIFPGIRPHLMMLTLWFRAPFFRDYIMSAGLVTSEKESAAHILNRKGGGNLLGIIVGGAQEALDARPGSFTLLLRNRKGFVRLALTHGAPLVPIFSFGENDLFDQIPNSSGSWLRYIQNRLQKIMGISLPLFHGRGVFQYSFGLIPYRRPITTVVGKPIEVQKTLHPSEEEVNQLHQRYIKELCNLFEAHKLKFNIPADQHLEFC

With `Cn1nc(C(F)(F)F)cc1-c1cnc(N2CCc3cc(S(=O)(=O)Nc4c(F)cc(Cl)cc4F)cc(N4CCCC4=O)c32)nc1` [compA, compound A] the IC50 [1] was 7.8 nM and the IC50 [2] was 2.4 nM.
